# Calls of active or inactive are those of the source. The calls are words filed in the database; no cut-off is given here.
# Tests used:
# HCT-116 = test: cells; details: Homo sapiens, HCT-116, 72 h
# PC-3 = test: cells; details: Homo sapiens, PC-3, 72 h
# Description: Cytotoxicity against human PC3 cells after 72 hrs by MTT assay
# A549 = test: Cytotoxicity against human A549 cells after 72 hrs by MTT assay; type: functional, cell-based; details: A549, 72 h
# HL-60 = test: Cytotoxicity against human HL60 cells after 72 hrs by MTT assay; type: functional, cell-based; details: HL-60, 72 h
# KB = test: Cytotoxicity against human KB cells after 72 hrs by MTT assay; type: functional, cell-based
# [1] = molecular target: T1, Phosphatidylinositol 4,5-bisphosphate 3-kinase catalytic subunit alpha isoform (Homo sapiens, UniProt P42336); test: Inhibition of human recombinant PI3Kalpha assessed as production of 3,4,5-inositoltriphosphate after 3 hrs by fluorescence polarization assay
# [2] = molecular target: T1, Phosphatidylinositol 4,5-bisphosphate 3-kinase catalytic subunit alpha isoform; test: Inhibition of PI3K in human PC3 cells assessed as suppression of Akt Ser473 phosphorylation at 10 uM after 3 hrs by SDS-PAGE and Western blot analysis; type: cell-based; details: PC-3
# T1 sequence (P42336 whole entry, canonical isoform): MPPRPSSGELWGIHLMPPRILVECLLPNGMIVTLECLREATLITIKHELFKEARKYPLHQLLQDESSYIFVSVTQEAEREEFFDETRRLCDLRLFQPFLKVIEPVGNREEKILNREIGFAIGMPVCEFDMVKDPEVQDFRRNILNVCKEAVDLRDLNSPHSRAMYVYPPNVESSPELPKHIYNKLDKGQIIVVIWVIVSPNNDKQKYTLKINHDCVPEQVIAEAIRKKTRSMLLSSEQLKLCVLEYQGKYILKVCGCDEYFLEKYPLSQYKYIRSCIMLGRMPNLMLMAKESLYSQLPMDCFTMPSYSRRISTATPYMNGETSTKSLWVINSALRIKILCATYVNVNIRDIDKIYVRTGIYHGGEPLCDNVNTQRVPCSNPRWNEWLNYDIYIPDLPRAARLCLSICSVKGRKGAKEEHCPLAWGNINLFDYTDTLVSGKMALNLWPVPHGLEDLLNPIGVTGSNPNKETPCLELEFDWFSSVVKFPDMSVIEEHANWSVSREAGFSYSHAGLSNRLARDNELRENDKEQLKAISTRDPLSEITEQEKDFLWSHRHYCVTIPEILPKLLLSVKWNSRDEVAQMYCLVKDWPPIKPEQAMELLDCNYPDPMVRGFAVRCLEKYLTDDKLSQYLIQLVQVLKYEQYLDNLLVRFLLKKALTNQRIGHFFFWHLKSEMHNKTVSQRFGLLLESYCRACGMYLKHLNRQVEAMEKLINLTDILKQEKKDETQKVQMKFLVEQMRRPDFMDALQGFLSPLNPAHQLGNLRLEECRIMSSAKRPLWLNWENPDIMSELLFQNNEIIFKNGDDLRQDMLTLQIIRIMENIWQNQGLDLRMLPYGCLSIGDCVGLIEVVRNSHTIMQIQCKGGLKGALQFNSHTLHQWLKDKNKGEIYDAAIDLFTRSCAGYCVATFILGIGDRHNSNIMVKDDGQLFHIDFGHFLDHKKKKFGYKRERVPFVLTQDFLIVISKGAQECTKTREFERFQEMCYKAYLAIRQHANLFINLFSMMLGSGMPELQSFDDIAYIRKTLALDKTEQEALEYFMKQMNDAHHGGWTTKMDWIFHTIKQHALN
Structure (SMILES),IC50 (HCT-116) [µM],IC50 (PC-3) [µM],IC50 (A549) [µM],IC50 (HL-60) [µM],IC50 (KB) [µM],IC50 [1] [µM],inhibition [2]
COc1cc(Nc2nc3ccccc3nc2S(=O)(=O)c2ccc(F)cc2)cc(OC)c1OC,3.11,> 50,> 50,4.79,,,
O=S(=O)(c1ccccc1)c1nc2ccccc2nc1Nc1ccc(F)cc1,5.19,14.2,> 50,1.01,> 50,,
COc1ccc(S(=O)(=O)c2nc3ccccc3nc2Nc2ccc(F)cc2)cc1,2.11,2.2,1.24,0.61,2.59,,
Nc1cccc(Nc2nc3ccccc3nc2S(=O)(=O)c2ccccc2)c1,1.54,2.15,1.59,1.75,4.29,,
O=S(=O)(c1ccc(Br)cc1)c1nc2ccccc2nc1Nc1ccccc1,1.11,1.18,10.8,0.13,5.1,,
COc1cc(Nc2nc3ccccc3nc2S(=O)(=O)c2ccc(Br)cc2)cc(OC)c1,> 50,18.2,15.8,2.54,,,
Cc1ccc(S(=O)(=O)c2nc3ccccc3nc2Nc2cccc(O)c2)cc1,3.81,1.69,6.08,0.4,5.35,> 1,
O=S(=O)(c1ccccc1)c1nc2ccccc2nc1Nc1ccccc1,1.63,0.59,26.3,0.14,22.6,,
Cc1ccc(S(=O)(=O)c2nc3ccccc3nc2Nc2ccc(C(F)(F)F)cc2)cc1,0.95,2.54,13.5,0.27,10.3,,
COc1ccc(Nc2nc3ccccc3nc2S(=O)(=O)c2ccc(Br)cc2)cc1,3.4,1.11,3.34,1.19,,,
Cc1ccc(S(=O)(=O)c2nc3ccccc3nc2Nc2ccc(Cl)cc2)cc1,2.05,9.66,54.2,17.5,13.8,,
Cc1ccc(S(=O)(=O)c2nc3ccccc3nc2Nc2ccc(N)cc2)cc1,11.5,5,24.6,1.22,5.63,,
COc1ccc(S(=O)(=O)c2nc3ccccc3nc2Nc2cccc(N)c2)cc1,3.71,8.6,0.34,1.49,4.96,,
Cc1ccc(S(=O)(=O)c2nc3ccccc3nc2Nc2ccccc2)cc1,1.07,1.06,12.5,0.4,19,,
COc1cc(Nc2nc3ccccc3nc2S(=O)(=O)c2ccc(Br)cc2)cc(OC)c1OC,13,19.8,6.11,1.02,,,
O=S(=O)(c1ccc(Br)cc1)c1nc2ccccc2nc1Nc1ccc(Cl)cc1,10.6,7.46,61.4,16.4,11.6,,
O=S(=O)(c1ccccc1)c1nc2ccccc2nc1Nc1cccc(O)c1,1.15,1.68,5.73,0.22,8.42,> 1,
O=S(=O)(c1ccccc1)c1nc2ccccc2nc1Nc1ccc(C(F)(F)F)cc1,2.09,3.55,> 50,0.3,> 50,,
COc1cc(Nc2nc3ccccc3nc2S(=O)(=O)c2ccc(C)cc2)cc(OC)c1,> 50,2.94,8.06,0.02,,,Active
COc1ccc(S(=O)(=O)c2nc3ccccc3nc2Nc2ccc(N)cc2)cc1,6.3,9.64,2.99,0.71,17.8,,
COc1cc(Nc2nc3ccccc3nc2S(=O)(=O)c2ccccc2)cc(OC)c1OC,> 50,29.1,9.66,1.77,,,
COc1ccc(Nc2nc3ccccc3nc2S(=O)(=O)c2ccc(F)cc2)cc1,3.01,4.33,4.84,1.2,,,
O=c1cc(N2CCOCC2)oc2c(-c3ccccc3)cccc12 [LY-294002],56,61.4,89.7,9.94,44.8,,

Structure (SMILES),IC50 (HCT-116) [µM],IC50 (PC-3) [µM],IC50 (A549) [µM],IC50 (HL-60) [µM],IC50 (KB) [µM],IC50 [1] [µM],inhibition [2]
Nc1ccc(Nc2nc3ccccc3nc2S(=O)(=O)c2ccccc2)cc1,10.8,5.83,12.8,8.72,3.4,,
O=S(=O)(c1ccccc1)c1nc2ccccc2nc1Nc1ccc(Cl)cc1,2,15.3,30.7,1.92,41.2,,
COc1cc(Nc2nc3ccccc3nc2S(=O)(=O)c2ccc(C)cc2)cc(OC)c1OC,10.8,4.85,5.61,0.32,,,
O=S(=O)(c1ccc(Br)cc1)c1nc2ccccc2nc1Nc1cccc(O)c1,0.54,1.7,8,0.2,8.41,0.47,
Nc1cccc(Nc2nc3ccccc3nc2S(=O)(=O)c2ccc(Br)cc2)c1,3.28,9.01,1.12,1.37,5.34,,
COc1ccc(S(=O)(=O)c2nc3ccccc3nc2Nc2cc(OC)cc(OC)c2)cc1,13.4,6.22,12.7,1.71,,,
COc1ccc(S(=O)(=O)c2nc3ccccc3nc2Nc2ccc(Cl)cc2)cc1,26.5,31.8,87.3,19.6,49.8,,
O=S(=O)(c1ccc(Br)cc1)c1nc2ccccc2nc1Nc1ccc(F)cc1,1.67,9.16,4.36,0.26,2.28,,
COc1ccc(S(=O)(=O)c2nc3ccccc3nc2Nc2cc(OC)c(OC)c(OC)c2)cc1,> 50,7.85,5.17,0.68,,,
O=S(=O)(c1ccc(Br)cc1)c1nc2ccccc2nc1Nc1ccc(C(F)(F)F)cc1,2.61,4.15,> 50,0.28,> 50,,
Cc1ccc(S(=O)(=O)c2nc3ccccc3nc2Nc2cccc(N)c2)cc1,2.39,2,1.95,1.08,10.6,,
COc1ccc(Nc2nc3ccccc3nc2S(=O)(=O)c2ccccc2)cc1,2.42,1.51,11.9,0.64,,,
COc1ccc(Nc2nc3ccccc3nc2S(=O)(=O)c2ccc(C)cc2)cc1,> 50,> 50,> 50,2.79,,,
Nc1cccc(Nc2nc3ccccc3nc2S(=O)(=O)c2ccc(F)cc2)c1,6.79,1.98,6.84,4.04,,,
COc1cc(Nc2nc3ccccc3nc2S(=O)(=O)c2ccccc2)cc(OC)c1,0.95,0.14,0.07,0.05,,0.07,
Nc1ccc(Nc2nc3ccccc3nc2S(=O)(=O)c2ccc(F)cc2)cc1,10.1,2.05,12.7,1.62,,,
Nc1ccc(Nc2nc3ccccc3nc2S(=O)(=O)c2ccc(Br)cc2)cc1,1.39,2.33,1.02,0.73,4.08,,Active
COc1ccc(S(=O)(=O)c2nc3ccccc3nc2Nc2ccccc2)cc1,1.26,1.26,13.2,0.26,9.89,,
COc1ccc(S(=O)(=O)c2nc3ccccc3nc2Nc2ccc(C(F)(F)F)cc2)cc1,0.11,0.33,4.81,0.22,0.89,,
COc1ccc(S(=O)(=O)c2nc3ccccc3nc2Nc2cccc(O)c2)cc1,0.82,1.63,6.11,0.14,8.27,> 1,
Cc1ccc(S(=O)(=O)c2nc3ccccc3nc2Nc2ccc(F)cc2)cc1,10.5,13.1,39.2,5.1,8.95,,
COc1cc(Nc2nc3ccccc3nc2S(=O)(=O)c2ccc(F)cc2)cc(OC)c1,3.93,4.53,5.45,2.36,,,
COc1ccc(Nc2nc3ccccc3nc2S(=O)(=O)c2ccc(OC)cc2)cc1,29.1,8.71,8.26,1.19,,,
